Reference: patent publication US20140148412A1, “NOVEL 17B-HETEROARYL-S[…] AS MODULATORS OF GABAA RECEPTORS” (THE REGENTS OF THE UNIVERSITY OF CLAIFORNIA, priority 2011, published 2014)

Key:
[1] = target: GABAA receptors (rat cerebral cortex P2 homogenate); experiment: [35S]TBPS binding assay; settings: inhibition of [35S]TBPS binding
Method: The cerebral cortex from male Sprague-Dawley rats (weighing 160-200 g) was removed immediately after decapitation and dissected over ice. A P2 homogenate was prepared for binding assay as previously described (Gee, 1987a). The tissue was homogenized in 0.32 M sucrose (J. T. Baker Chemical Co., Phillipsburg, N.J.) with a Teflon-coated pestle, followed by centrifugation at 1,000×g for 10 min. The supernatant was collected and centrifuged at 9,000×g for 20 min. The resultant P2 pellet was resuspended in ice-cold 50 mM sodium potassium phosphate buffer (pH 7.4) containing 200 mM NaCl and used immediately in binding assays. A 2 nM concentration of [^35S]TBPS (86 Ci/mmol; New England Nuclear, Boston, Mass.) was incubated with 100 μL of tissue homogenate (10% w/v) in the presence or absence of 5 μM GABA (Sigma Chem. Co., St. Louis, Mo.) and 5 μL aliquots of test drug dissolved in dimethyl sulfoxide (Sigma Chem. Co.) (≦10 μL of solvent used in all assays). At the concentration (≦1%) used, dimethyl sulfoxide had no effect on specific [^35S]TBPS binding. […] Filter-bound radioactivity was quantified by liquid scintillation spectrophotometry. The data were evaluated by nonlinear regression (GraphPad, Inc., San Diego, Calif.) to obtain IC50 (concentration at which half-maximal inhibition of radioligand occurs) and Imax (maximum percent inhibition) values. […]

mice [2] = experiment: Mouse rotarod (RR); format: in vivo; settings: dosed in 20% 2-hydroxypropyl-β-cyclodextrin
Method: Naïve mice were trained on a RR (Columbus Instruments, Columbus, Ohio) in 4 sessions (6-15 rpm) over 2 days to successfully complete the 2-min trial prior to final testing (6 rpm). On day 3, the mice were administered compound and tested over a period of 360 min at various intervals. The percentage of animals remaining on the RR throughout each 2-min trial was recorded. The results that coincided with the time of peak effect were analyzed by the method of Litchfield and Wilcoxon (Litchfield and Wilcoxon, J. Pharmacol. Exp. Ther., 1949, 96, 99) to determine the AD50 (ataxic half-maximal dose where half of the mice fail the RR assay). Compounds that have activity in the rotarod assay can indicate CNS depressive activity and sedative activity.

mice [3] = experiment: Mouse elevated plus maze (EPM); format: in vivo; settings: dosed in 20% 2-hydroxypropyl-β-cyclodextrin
Method: Mouse Elevated Plus Maze (EPM)
Mice were group housed and handled daily for 3 days prior to testing in the EPM (Coulbourn Instruments). Testing was conducted in a dimly lit room, with two 60 W bulbs pointed at the ceiling near the open arms (4 ft. above the maze). The maze was cleaned between each run. Automated counting of time spent in the open arms of the maze was achieved by using Med Associates (St. Albans, Vt.) MedPC-IV program. Data were analyzed with GraphPad Prism 4.0 for statistical significance by one-way ANOVA with Dunnett's multiple comparison post-hoc test. Compounds that increase the amount of time the animals spend in the open arms have activity as anxiolytics.

[4] = tested on: pentylenetetrazole-induced seizures; experiment: Anticonvulsant assay, protection from pentylenetetrazole-induced seizures; format: in vivo; settings: oral dosing in 20% 2-hydroxypropyl-β-cyclodextrin; dose protecting half the animals from seizures
Method: The ability of compounds to protect against pentylenetetrazole-induced seizures was carried out as described by Hogenkamp, et al. J. Med. Chem. 2007, 50, 3369. The dose that protected half the animals from seizures was determined as the ED50.

[5] = target: T1, human α1β1γ2 GABAA receptors (Homo sapiens, UniProt P14867+P18505); experiment: Oocyte electrophysiology, modulation of EC10 GABA response; format: cell-based; settings: oocytes expressing human α1β1γ2 GABAA receptors; % modulation above EC10 GABA control
T1 construct: expressed in transfected cells
Method: Preparation, micro-injection and maintenance of oocytes was as previously described (Ng et al., Proc. Natl. Acad. Sci., 2007, 104, 8059). Individual oocytes were injected with 0.005-50 ng of each subunit mRNA as follows (ratio of subunits in parentheses): GABAA receptor subunit combinations (α1,2, or 3, β1,2, or 3, γ2L or δ): (5:1:1). Stage IV-V oocytes were plucked from ovary membranes, defolliculized with collagenase Type IA (Worthington's) for 45 min and rinsed 10 times with Ringer's salt solution. cRNA was injected at 50 nL. Oocytes were tested 3-28 days after injection (n=3-7 per compound), in Ringer's salt solution by linear drug application method using electrodes with […] tip resistance. Changes in membrane current were passed through a pre-amp, then through a T200 patch amplifier (Axon Instruments), with a bandpass filter 2 kHz. pClamp software was used to monitor, record, and analyze data. All compounds were tested with a 30 second pretreatment prior to co-application with EC10 (concentration of GABA that evokes 10% of the maximum response) GABA for the control response. Responses in presence of test compound were calculated as % modulation above control. Concentration-response curves were fit to non-linear regression analysis on Prism 4.0 (GraphPad, San Diego, Calif.) for % maximal stimulation and EC50. […]

T1 sequence (P14867 28-456): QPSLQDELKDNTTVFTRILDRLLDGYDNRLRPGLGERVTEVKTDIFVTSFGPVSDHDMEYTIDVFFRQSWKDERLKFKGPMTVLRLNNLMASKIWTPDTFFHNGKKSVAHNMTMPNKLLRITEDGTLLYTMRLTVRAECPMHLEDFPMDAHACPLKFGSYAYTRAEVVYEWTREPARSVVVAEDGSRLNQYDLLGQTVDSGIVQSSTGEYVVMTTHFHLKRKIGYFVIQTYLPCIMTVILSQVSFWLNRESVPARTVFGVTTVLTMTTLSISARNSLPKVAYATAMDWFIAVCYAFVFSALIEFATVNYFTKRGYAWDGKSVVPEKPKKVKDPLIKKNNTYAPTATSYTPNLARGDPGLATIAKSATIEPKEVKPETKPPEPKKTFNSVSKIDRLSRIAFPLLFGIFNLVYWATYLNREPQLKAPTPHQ
T1 sequence (P18505 26-474): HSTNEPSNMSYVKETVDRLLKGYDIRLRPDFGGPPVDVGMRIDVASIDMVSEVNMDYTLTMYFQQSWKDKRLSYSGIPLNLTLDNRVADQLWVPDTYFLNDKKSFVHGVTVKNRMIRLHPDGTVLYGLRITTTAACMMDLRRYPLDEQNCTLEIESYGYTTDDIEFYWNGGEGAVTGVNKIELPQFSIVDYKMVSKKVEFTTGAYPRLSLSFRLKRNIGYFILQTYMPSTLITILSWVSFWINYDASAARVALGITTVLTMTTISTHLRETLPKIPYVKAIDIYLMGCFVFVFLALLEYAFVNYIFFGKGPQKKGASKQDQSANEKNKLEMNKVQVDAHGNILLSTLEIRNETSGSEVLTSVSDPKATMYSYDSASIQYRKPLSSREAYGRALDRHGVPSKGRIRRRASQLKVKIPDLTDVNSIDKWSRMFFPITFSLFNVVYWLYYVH
T1 sequence (P18507 40-475 partner): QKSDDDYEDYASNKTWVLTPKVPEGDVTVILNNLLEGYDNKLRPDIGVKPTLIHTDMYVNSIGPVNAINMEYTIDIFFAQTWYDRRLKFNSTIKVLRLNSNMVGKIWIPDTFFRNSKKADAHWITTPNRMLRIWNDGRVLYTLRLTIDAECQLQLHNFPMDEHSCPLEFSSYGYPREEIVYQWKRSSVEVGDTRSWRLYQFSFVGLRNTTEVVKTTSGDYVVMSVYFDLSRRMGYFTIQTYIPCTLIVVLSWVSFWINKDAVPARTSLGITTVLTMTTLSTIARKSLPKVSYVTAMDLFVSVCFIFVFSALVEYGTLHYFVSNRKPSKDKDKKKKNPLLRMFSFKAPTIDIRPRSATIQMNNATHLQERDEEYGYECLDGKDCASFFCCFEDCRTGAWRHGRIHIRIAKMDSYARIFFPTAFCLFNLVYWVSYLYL

**Q.** With `C[C@@]1(O)CC[C@@]2(C)[C@@H](CC[C@@H]3[C@@H]2CC[C@]2(C)[C@@H](c4cc(CO)no4)CC[C@@H]32)C1` as the compound, how does the melting point read?
**A.** 192 to 193 °C

**Q.** Which results are given for `C[C@@]1(O)CC[C@@]2(C)[C@@H](CC[C@@H]3[C@@H]2CC[C@]2(C)[C@@H](c4cn5ccccc5n4)CC[C@@H]32)C1` [2-[3α-Hydroxy-3β-methyl-5α-androstan-17β-yl]-imidazo[1,2-a]pyridine]?
**A.** IC50 [1]: 1 µM; Imax (maximum percent inhibition) [1]: 100%

**Q.** For `C[C@@]1(O)CC[C@@]2(C)[C@@H](CC[C@@H]3[C@@H]2CC[C@]2(C)[C@@H](c4cc(CO)on4)CC[C@@H]32)C1` [3-[3α-hydroxy-3β-methyl-5α-androstan-17β-yl]-5-(hydroxymethyl)isoxazole], which melting point is on record?
**A.** 198.5 to 200 °C

**Q.** What about the “oral AD50 (ataxic half-maximal dose)” value (mice [2]) of the same compound?
**A.** 43 mg/kg

**Q.** And the “minimum effective oral dose” value (mice [3])?
**A.** 1 mg/kg

**Q.** And the ED50 [4]?
**A.** 4 mg/kg

**Q.** Which maximum modulation [5] does the source give for `C[C@@]1(O)CC[C@@]2(C)[C@@H](CC[C@@H]3[C@@H]2CC[C@]2(C)[C@@H](c4ccno4)CC[C@@H]32)C1` [5-[3α-hydroxy-3β-methyl-5α-androstan-17β-yl]-isoxazole] here?
**A.** 400%
